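In this assay, cells in 96-well plates receive the compound at five concentrations for 48 hours. Endpoints are linearly interpolated between the surrounding concentrations. TGI marks complete inhibition of growth.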
Experiments:
Test in all cases: NCI tumour cell line growth inhibition, 48 h
NCI-H460 lung = test system: NCI-H460 lung
SK-MEL-2 melanoma = test system: SK-MEL-2 melanoma
HS 578T breast = test system: HS 578T breast
HOP-62 NSCLC = test system: HOP-62 NSCLC
SNB-19 CNS = test system: SNB-19 CNS
OVCAR-3 ovarian = test system: OVCAR-3 ovarian
EKVX NSCLC = test system: EKVX NSCLC
MOLT-4 leukemia = test system: MOLT-4 leukemia
MDA-N = test system: MDA-N
CAKI-1 renal = test system: CAKI-1 renal
NCI-H226 lung = test system: NCI-H226 lung
HT29 colon = test system: HT29 colon
SK-MEL-28 melanoma = test system: SK-MEL-28 melanoma
MCF7 breast = test system: MCF7 breast
SN12C renal = test system: SN12C renal
NCI-H522 lung = test system: NCI-H522 lung
COLO 205 colon = test system: COLO 205 colon
SNB-75 CNS = test system: SNB-75 CNS
RXF 393 renal = test system: RXF 393 renal
UACC-62 melanoma = test system: UACC-62 melanoma
ACHN renal = test system: ACHN renal
A549 NSCLC = test system: A549 NSCLC
SK-OV-3 ovarian = test system: SK-OV-3 ovarian
HCT-15 colon = test system: HCT-15 colon
UO-31 renal = test system: UO-31 renal
MDA-MB-435 = test system: MDA-MB-435
MDA-MB-231 breast = test system: MDA-MB-231 breast
U251 CNS = test system: U251 CNS
A498 renal = test system: A498 renal
BT-549 breast = test system: BT-549 breast
OVCAR-8 ovarian = test system: OVCAR-8 ovarian
SK-MEL-5 melanoma = test system: SK-MEL-5 melanoma
TK-10 renal = test system: TK-10 renal
OVCAR-5 ovarian = test system: OVCAR-5 ovarian
M14 melanoma = test system: M14 melanoma
786-0 renal = test system: 786-0 renal
SF-295 CNS = test system: SF-295 CNS
IGROV1 ovarian = test system: IGROV1 ovarian
SF-539 CNS = test system: SF-539 CNS
MALME-3M melanoma = test system: MALME-3M melanoma
LOX IMVI melanoma = test system: LOX IMVI melanoma
T-47D breast = test system: T-47D breast
KM12 colon = test system: KM12 colon
HCC-2998 colon = test system: HCC-2998 colon
NCI/ADR-RES ovarian = test system: NCI/ADR-RES ovarian
OVCAR-4 ovarian = test system: OVCAR-4 ovarian
K-562 leukemia = test system: K-562 leukemia
PC-3 prostate = test system: PC-3 prostate
HL-60(TB) leukemia = test system: HL-60(TB) leukemia
DU-145 prostate = test system: DU-145 prostate
SR leukemia = test system: SR leukemia
CCRF-CEM leukemia = test system: CCRF-CEM leukemia
RPMI-8226 leukemia = test system: RPMI-8226 leukemia
HOP-92 NSCLC = test system: HOP-92 NSCLC
UACC-257 melanoma = test system: UACC-257 melanoma
NCI-H23 lung = test system: NCI-H23 lung
SF-268 CNS = test system: SF-268 CNS
SW-620 colon = test system: SW-620 colon
HCT-116 colon = test system: HCT-116 colon

For `NC1CCC(c2cc3ccccc3s2)(N2CCCCC2)CC1` (stereo not drawn), the TGI (NCI-H460 lung) was 3.06 µM, the TGI (SK-MEL-2 melanoma) was 2.95 µM and the TGI (HS 578T breast) was 20.5 µM. It also gave a TGI (HOP-62 NSCLC) of 4.5 µM, a TGI (SNB-19 CNS) of 26.8 µM and a TGI (OVCAR-3 ovarian) of 2.81 µM. For the same compound, the TGI (EKVX NSCLC) was 11.9 µM, the TGI (MOLT-4 leukemia) was 3.25 µM and the TGI (MDA-N) was 3.2 µM. The TGI (CAKI-1 renal) was 10.1 µM, the TGI (NCI-H226 lung) was 43.7 µM and the TGI (HT29 colon) was 2.45 µM. The TGI (SK-MEL-28 melanoma) was 3.11 µM, the TGI (MCF7 breast) was 3.05 µM and the TGI (SN12C renal) was 3.1 µM. For the same compound, the TGI (NCI-H522 lung) was 4.15 µM, the TGI (COLO 205 colon) was 3.19 µM and the TGI (SNB-75 CNS) was 25.2 µM. The TGI (RXF 393 renal) was 21.2 µM, the TGI (UACC-62 melanoma) was 6.25 µM and the TGI (ACHN renal) was 12.5 µM. For the same compound, the TGI (A549 NSCLC) was 8.46 µM, the TGI (SK-OV-3 ovarian) was 22.6 µM and the TGI (HCT-15 colon) was 3.76 µM. The TGI (UO-31 renal) was 5.94 µM, the TGI (MDA-MB-435) was 2.63 µM and the TGI (MDA-MB-231 breast) was 12.9 µM. For the same compound, the TGI (U251 CNS) was 3.05 µM, the TGI (A498 renal) was 22.9 µM and the TGI (BT-549 breast) was 3.08 µM. It also gave a TGI (OVCAR-8 ovarian) of 3.67 µM, a TGI (SK-MEL-5 melanoma) of 4.16 µM and a TGI (TK-10 renal) of 19 µM. For the same compound, the TGI (OVCAR-5 ovarian) was 6.23 µM, the TGI (M14 melanoma) was 2.88 µM and the TGI (786-0 renal) was 2.83 µM. For the same compound, the TGI (SF-295 CNS) was 12.7 µM, the TGI (IGROV1 ovarian) was 3.26 µM and the TGI (SF-539 CNS) was 4.59 µM. It also gave a TGI (MALME-3M melanoma) of 7.79 µM, a TGI (LOX IMVI melanoma) of 2.84 µM and a TGI (T-47D breast) of 5.51 µM. It also gave a TGI (KM12 colon) of 3.78 µM, a TGI (HCC-2998 colon) of 2.21 µM and a TGI (NCI/ADR-RES ovarian) of 2.42 µM. It also gave a TGI (OVCAR-4 ovarian) of 15.2 µM, a TGI (K-562 leukemia) of 3.44 µM and a TGI (PC-3 prostate) of 3.59 µM. The TGI (HL-60(TB) leukemia) was 4.58 µM, the TGI (DU-145 prostate) was 16.4 µM and the TGI (SR leukemia) was 3.38 µM. It also gave a TGI (CCRF-CEM leukemia) of 2.45 µM, a TGI (RPMI-8226 leukemia) of 2.28 µM and a TGI (HOP-92 NSCLC) of 5.15 µM. For the same compound, the TGI (UACC-257 melanoma) was 3.44 µM, the TGI (NCI-H23 lung) was 3.23 µM and the TGI (SF-268 CNS) was 15.8 µM. The TGI (SW-620 colon) was 3.2 µM and the TGI (HCT-116 colon) was 3.05 µM.
Compound `CCCCCc1c(CCCC)c(=O)[nH]c2cc(CNCC(OC)OC)ccc12` has a TGI (NCI-H460 lung) of 23.9 µM, a TGI (SK-MEL-2 melanoma) of 28.4 µM and a TGI (HS 578T breast) of 38.7 µM. The TGI (HOP-62 NSCLC) was 33.5 µM, the TGI (SNB-19 CNS) was 26.2 µM and the TGI (OVCAR-3 ovarian) was 32.3 µM. The TGI (EKVX NSCLC) was 31.3 µM, the TGI (MOLT-4 leukemia) was 20.6 µM and the TGI (MDA-N) was 24 µM. The TGI (CAKI-1 renal) was 24.6 µM, the TGI (NCI-H226 lung) was 40.6 µM and the TGI (HT29 colon) was 12.4 µM. The TGI (SK-MEL-28 melanoma) was 12.2 µM, the TGI (MCF7 breast) was 27.8 µM and the TGI (SN12C renal) was 28.1 µM. It also gave a TGI (NCI-H522 lung) of 34.6 µM, a TGI (COLO 205 colon) of 6.24 µM and a TGI (SNB-75 CNS) of 29.3 µM. The TGI (RXF 393 renal) was 27.1 µM, the TGI (UACC-62 melanoma) was 12.2 µM and the TGI (ACHN renal) was 27.8 µM. The TGI (A549 NSCLC) was 25.7 µM, the TGI (SK-OV-3 ovarian) was 32.3 µM and the TGI (HCT-15 colon) was 23.8 µM. The TGI (UO-31 renal) was 26.4 µM, the TGI (MDA-MB-435) was 24 µM and the TGI (MDA-MB-231 breast) was 29.3 µM. It also gave a TGI (U251 CNS) of 23.9 µM, a TGI (A498 renal) of 28.9 µM and a TGI (BT-549 breast) of 28 µM. It also gave a TGI (OVCAR-8 ovarian) of 32 µM, a TGI (SK-MEL-5 melanoma) of 21 µM and a TGI (TK-10 renal) of 28.7 µM. For the same compound, the TGI (OVCAR-5 ovarian) was 28 µM, the TGI (M14 melanoma) was 8.1 µM and the TGI (786-0 renal) was 18.1 µM. For the same compound, the TGI (SF-295 CNS) was 32.2 µM, the TGI (IGROV1 ovarian) was 29.6 µM and the TGI (SF-539 CNS) was 28.4 µM. The TGI (MALME-3M melanoma) was 7.83 µM, the TGI (LOX IMVI melanoma) was 18.8 µM and the TGI (T-47D breast) was 31.8 µM. For the same compound, the TGI (KM12 colon) was 26.4 µM, the TGI (HCC-2998 colon) was 7.62 µM and the TGI (NCI/ADR-RES ovarian) was 26.9 µM. The TGI (OVCAR-4 ovarian) was 30.9 µM, the TGI (K-562 leukemia) was 5.63 µM and the TGI (PC-3 prostate) was 25.5 µM. For the same compound, the TGI (HL-60(TB) leukemia) was 43.9 µM, the TGI (DU-145 prostate) was 28 µM and the TGI (SR leukemia) was 17.3 µM. For the same compound, the TGI (CCRF-CEM leukemia) was 19.2 µM, the TGI (RPMI-8226 leukemia) was 13.8 µM and the TGI (HOP-92 NSCLC) was 16.5 µM. For the same compound, the TGI (UACC-257 melanoma) was 16.2 µM, the TGI (NCI-H23 lung) was 32.8 µM and the TGI (SF-268 CNS) was 32.6 µM. For the same compound, the TGI (SW-620 colon) was 16.3 µM and the TGI (HCT-116 colon) was 18.9 µM.

— PubChem BioAssay (NCI)
